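All cell lines were grown in 96-well plates and treated with compound for 48 hours. GI50 is the concentration that inhibits growth by half. TGI marks complete inhibition of growth.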
Columns and labels:
Test in all cases: NCI anticancer screen, dose series, 48 h
[1] = system: SF-295 CNS
[2] = system: NCI-H226 lung
[3] = system: SK-MEL-28 melanoma
[4] = system: RPMI-8226 leukemia
[5] = system: HCT-116 colon
[6] = system: MCF7 breast
[7] = system: A549 NSCLC
[8] = system: A498 renal
[9] = system: NCI/ADR-RES ovarian
[10] = system: SK-MEL-2 melanoma

SMILES	GI50 [1]	TGI [1]	GI50 [2]	TGI [2]	GI50 [3]	TGI [3]	GI50 [4]	TGI [4]	GI50 [5]	TGI [5]	GI50 [6]	TGI [6]	GI50 [7]	TGI [7]	GI50 [8]	TGI [8]	GI50 [9]	TGI [9]	GI50 [10]	TGI [10]
CCCCNc1ccc(Nc2ccccc2)cc1	4.63 µM	64.4 µM	12.5 µM	> 100 µM	10.4 µM	60.2 µM	1.72 µM	4.86 µM	2.97 µM	22.7 µM	3.74 µM	28 µM	4.38 µM	52.9 µM	11.4 µM	> 100 µM	21.5 µM	> 100 µM	–	–
COc1ccc(-c2c3c(nc4n[nH]c(-c5ccc(Cl)cc5)c24)-c2ccccc2C(=O)C3=O)cc1	1.9 µM	4.32 µM	–	–	1.84 µM	3.9 µM	1.72 µM	7.15 µM	1.01 µM	2.48 µM	1.46 µM	5.7 µM	1.83 µM	3.54 µM	3.72 µM	17.6 µM	2.64 µM	> 100 µM	1.56 µM	3.3 µM
CN(CCC(=O)/C(=C\c1ccccc1)c1ccc(Cl)cc1)Cc1ccccc1	2.76 µM	7.5 µM	2.44 µM	5.53 µM	–	–	–	–	2.35 µM	5.73 µM	2.06 µM	16.5 µM	12.8 µM	31.9 µM	3.45 µM	12.6 µM	3.68 µM	> 100 µM	2.6 µM	7.23 µM
O=C(CCCN1CCC(C(O)c2ccc(F)cc2)CC1)c1ccc(F)cc1 (stereo not given)	–	118 µM	–	111 µM	–	118 µM	–	168 µM	–	116 µM	–	122 µM	–	123 µM	–	94.4 µM	–	149 µM	–	113 µM
O=C1CC/C(=C/COc2cc(=O)oc3ccccc23)O1	14.8 µM	40.6 µM	17.9 µM	73.5 µM	14 µM	28.5 µM	2.02 µM	8.07 µM	6.95 µM	19.7 µM	3.74 µM	20.2 µM	16.4 µM	30.8 µM	12.6 µM	35.4 µM	11.5 µM	27.5 µM	6.78 µM	37.1 µM
O=C(CC1C=Cc2ccccc2N1C(=O)c1ccccc1)c1ccccc1 (stereo not given)	–	78.1 µM	–	99.9 µM	–	> 100 µM	–	39.9 µM	–	45.6 µM	–	> 100 µM	–	> 100 µM	–	93.5 µM	–	> 100 µM	–	38.8 µM
Cc1ccc(-n2nnnc2-c2cnc(N3CCOCC3)nc2-c2cccc(C(F)(F)F)c2)cc1	1.1 µM	3.65 µM	1.51 µM	10.8 µM	14.4 µM	> 50 µM	1.28 µM	3.77 µM	1.35 µM	5.08 µM	1.32 µM	> 32.8 µM	2.26 µM	> 50 µM	2.71 µM	17.1 µM	0.825 µM	2.36 µM	> 10.8 µM	> 50 µM
CCC(C)C(=O)OCC(=O)c1ccc(-c2ccccc2)cc1 (stereo not given)	–	> 100 µM	–	–	–	> 100 µM	–	71.5 µM	–	> 100 µM	–	> 100 µM	–	> 100 µM	–	> 100 µM	–	> 100 µM	–	> 100 µM
Cc1nc2ccccc2nc1N=Nc1ccccc1	6.38 µM	> 100 µM	24.6 µM	> 100 µM	26 µM	> 100 µM	12.2 µM	42.8 µM	31.1 µM	> 100 µM	5.75 µM	> 100 µM	37.3 µM	> 100 µM	–	–	16 µM	57.6 µM	24 µM	61.3 µM
CCOc1ccc2c(c1)c(CC(=O)O)cn2C	–	> 100 µM	–	> 100 µM	–	> 100 µM	–	> 100 µM	–	> 100 µM	–	> 100 µM	–	> 100 µM	–	–	–	> 100 µM	–	> 100 µM
CCN1C(=NCCO)NS(=O)(=O)c2ccccc21	–	> 100 µM	–	> 100 µM	–	> 100 µM	–	–	–	> 100 µM	–	> 100 µM	–	> 100 µM	–	> 100 µM	–	> 100 µM	–	> 100 µM
O=Cc1ccc(-c2ccc(-c3nc4ccccc4s3)cc2)s1	40.7 µM	> 100 µM	66.1 µM	> 100 µM	> 100 µM	> 100 µM	–	–	35.3 µM	> 100 µM	48.1 µM	> 100 µM	> 100 µM	> 100 µM	> 100 µM	> 100 µM	40.8 µM	> 100 µM	> 100 µM	> 100 µM
Cl.Fc1c[c-]c(-c2ccccn2)c(F)c1.[Pt].c1ccc([PH+](C[PH+](c2ccccc2)c2ccccc2)c2ccccc2)cc1	–	–	–	–	0.231 µM	0.706 µM	0.161 µM	0.544 µM	–	–	0.198 µM	1.12 µM	0.206 µM	1.34 µM	0.239 µM	0.721 µM	1.61 µM	5.84 µM	–	–
O=C1c2cccnc2C(=O)c2c1c(C(=O)OCCCN1CCCCC1)c1ccccn21	0.01 µM	0.0383 µM	< 0.01 µM	0.0318 µM	0.034 µM	3.74 µM	0.0609 µM	–	< 0.0106 µM	0.275 µM	< 0.01 µM	< 0.015 µM	< 0.01 µM	< 0.0182 µM	–	–	< 0.01 µM	0.225 µM	0.0303 µM	0.0808 µM
CC1OC(CC(=O)O)CC2=C1C(=O)c1c(O)cccc1C2=O (stereo not given)	–	2.51 µM	–	3.13 µM	–	0.2 µM	–	0.241 µM	–	0.243 µM	–	0.368 µM	–	7.96 µM	–	2.36 µM	–	–	–	1.14 µM
O=C(NCCCl)SCCO	–	> 100 µM	–	> 100 µM	–	> 100 µM	–	> 100 µM	–	> 100 µM	–	–	–	> 100 µM	–	> 100 µM	–	–	–	> 100 µM
C/C(=N\NC(=S)N1CCCCCC1)c1cccc2cccnc12	–	> 21 µM	–	–	–	> 66.4 µM	–	15.3 µM	–	> 67.1 µM	–	> 100 µM	–	> 100 µM	–	54.9 µM	–	5.42 µM	–	> 100 µM
